Blank lines part the entries; values can stand above or below the molecule they belong to.
Assays:
Histone deacetylase 3 = Histone deacetylase 3 (Homo sapiens, UniProt O15379); assay: Inhibition of HDAC3 (unknown origin)
[1] = Ratio of drug concentration in brain to plasma of C57BL/6 mouse plasma at 1 mg/kg, ip measured after 0.5 hr by LC-MS/MS analysis; type: ADME, organism-based; conditions: read-out: BPR
Histone deacetylase 11 = biological target: T1, Histone deacetylase 11 (Homo sapiens, UniProt Q96DB2); assay: Inhibition of HDAC11 (unknown origin)
T1 sequence (Q96DB2 whole entry): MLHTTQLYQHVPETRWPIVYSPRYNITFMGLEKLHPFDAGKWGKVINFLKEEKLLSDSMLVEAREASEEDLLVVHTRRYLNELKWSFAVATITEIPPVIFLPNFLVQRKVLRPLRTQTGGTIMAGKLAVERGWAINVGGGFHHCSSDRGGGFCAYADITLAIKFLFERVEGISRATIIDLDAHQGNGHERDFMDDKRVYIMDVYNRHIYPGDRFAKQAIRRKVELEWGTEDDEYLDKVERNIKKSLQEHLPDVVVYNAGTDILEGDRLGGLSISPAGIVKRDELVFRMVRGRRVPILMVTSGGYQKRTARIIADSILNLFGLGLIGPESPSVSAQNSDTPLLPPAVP

[2] = Ratio of drug concentration in brain to plasma of C57BL/6 mouse plasma at 1 mg/kg, ip measured after 3 hrs by LC-MS/MS analysis; type: ADME, organism-based; conditions: read-out: BPR
Histone deacetylase 9 = Histone deacetylase 9 (Homo sapiens, UniProt Q9UKV0); assay: Inhibition of HDAC9 (unknown origin)
Histone deacetylase 4 = Histone deacetylase 4 (Homo sapiens, UniProt P56524); assay: Inhibition of HDAC4 (unknown origin)
[3] = Drug concentration in C57BL/6 mouse brain at 1 mg/kg, ip measured after 0.5 hrs by LC-MS/MS analysis; type: ADME, organism-based; conditions: read-out: Ct
[4] = Drug concentration in C57BL/6 mouse plasma at 1 mg/kg, ip measured after 3 hrs by LC-MS/MS analysis; type: ADME, organism-based
[5] = Drug concentration in C57BL/6 mouse brain at 1 mg/kg, ip measured after 1 hr by LC-MS/MS analysis; type: ADME, organism-based; conditions: read-out: Ct
BV-2 = assay: Cytotoxicity against mouse BV-2 cells at 500 to 1000 nM incubated overnight in presence of LPS by LDH assay; type: toxicity, cell-based; conditions: bv-2, 1 µM, dose 500-1000 nM
[6] = Drug concentration in C57BL/6 mouse plasma at 1 mg/kg, ip measured after 1 hr by LC-MS/MS analysis; type: ADME, organism-based
[7] = Drug concentration in C57BL/6 mouse plasma at 1 mg/kg, ip measured after 0.5 hrs by LC-MS/MS analysis; type: ADME, organism-based
Histone deacetylase 2 = Histone deacetylase 2 (Homo sapiens, UniProt Q92769); assay: Inhibition of HDAC2 (unknown origin)
[8] = biological target: T2, Polyamine deacetylase HDAC10 (Homo sapiens, UniProt Q969S8); assay: Inhibition of HDAC10 (unknown origin)
T2 sequence (Q969S8 whole entry): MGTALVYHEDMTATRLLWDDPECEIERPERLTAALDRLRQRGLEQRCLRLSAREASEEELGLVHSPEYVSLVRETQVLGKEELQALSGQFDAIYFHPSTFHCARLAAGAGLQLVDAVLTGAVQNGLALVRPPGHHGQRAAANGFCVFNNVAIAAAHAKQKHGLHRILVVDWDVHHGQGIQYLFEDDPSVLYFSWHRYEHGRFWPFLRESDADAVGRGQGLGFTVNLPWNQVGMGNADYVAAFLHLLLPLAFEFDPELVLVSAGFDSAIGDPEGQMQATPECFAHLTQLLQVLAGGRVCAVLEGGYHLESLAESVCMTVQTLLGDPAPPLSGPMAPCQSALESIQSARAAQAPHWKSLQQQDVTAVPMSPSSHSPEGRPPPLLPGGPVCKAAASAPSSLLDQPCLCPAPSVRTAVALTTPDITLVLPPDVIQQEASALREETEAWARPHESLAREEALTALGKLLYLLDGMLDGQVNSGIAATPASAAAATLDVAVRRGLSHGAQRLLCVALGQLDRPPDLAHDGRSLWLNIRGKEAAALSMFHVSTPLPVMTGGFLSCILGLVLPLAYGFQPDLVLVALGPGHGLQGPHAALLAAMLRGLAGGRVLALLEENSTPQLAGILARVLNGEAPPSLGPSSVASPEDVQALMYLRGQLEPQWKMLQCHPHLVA

[9] = Ratio of drug concentration in brain to plasma of C57BL/6 mouse plasma at 1 mg/kg, ip measured after 1 hr by LC-MS/MS analysis; type: ADME, organism-based; conditions: read-out: BPR
[10] = Drug concentration in C57BL/6 mouse brain at 1 mg/kg, ip measured after 3 hrs by LC-MS/MS analysis; type: ADME, organism-based; conditions: read-out: Ct
Histone deacetylase 5 = Histone deacetylase 5 (Homo sapiens, UniProt Q9UQL6); assay: Inhibition of HDAC5 (unknown origin)
Histone deacetylase 8 = biological target: T3, Histone deacetylase 8 (Homo sapiens, UniProt Q9BY41); assay: Inhibition of HDAC8 (unknown origin)
T3 sequence (Q9BY41 whole entry): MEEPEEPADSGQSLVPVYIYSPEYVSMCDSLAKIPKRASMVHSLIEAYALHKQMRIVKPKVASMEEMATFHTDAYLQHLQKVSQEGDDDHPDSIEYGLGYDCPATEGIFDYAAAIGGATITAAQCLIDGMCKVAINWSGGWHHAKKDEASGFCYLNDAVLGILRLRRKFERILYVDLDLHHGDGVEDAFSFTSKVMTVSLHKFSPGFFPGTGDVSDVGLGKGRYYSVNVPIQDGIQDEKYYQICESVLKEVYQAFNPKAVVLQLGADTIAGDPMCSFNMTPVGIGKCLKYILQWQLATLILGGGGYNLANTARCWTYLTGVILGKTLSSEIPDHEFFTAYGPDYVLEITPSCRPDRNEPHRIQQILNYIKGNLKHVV

Histone deacetylase 1 = Histone deacetylase 1 (Homo sapiens, UniProt Q13547); assay: Inhibition of HDAC1 (unknown origin)
[11] = biological target: T4, Protein deacetylase HDAC6 (Homo sapiens, UniProt Q9UBN7); assay: Inhibition of HDAC6 (unknown origin)
T4 sequence (Q9UBN7 whole entry): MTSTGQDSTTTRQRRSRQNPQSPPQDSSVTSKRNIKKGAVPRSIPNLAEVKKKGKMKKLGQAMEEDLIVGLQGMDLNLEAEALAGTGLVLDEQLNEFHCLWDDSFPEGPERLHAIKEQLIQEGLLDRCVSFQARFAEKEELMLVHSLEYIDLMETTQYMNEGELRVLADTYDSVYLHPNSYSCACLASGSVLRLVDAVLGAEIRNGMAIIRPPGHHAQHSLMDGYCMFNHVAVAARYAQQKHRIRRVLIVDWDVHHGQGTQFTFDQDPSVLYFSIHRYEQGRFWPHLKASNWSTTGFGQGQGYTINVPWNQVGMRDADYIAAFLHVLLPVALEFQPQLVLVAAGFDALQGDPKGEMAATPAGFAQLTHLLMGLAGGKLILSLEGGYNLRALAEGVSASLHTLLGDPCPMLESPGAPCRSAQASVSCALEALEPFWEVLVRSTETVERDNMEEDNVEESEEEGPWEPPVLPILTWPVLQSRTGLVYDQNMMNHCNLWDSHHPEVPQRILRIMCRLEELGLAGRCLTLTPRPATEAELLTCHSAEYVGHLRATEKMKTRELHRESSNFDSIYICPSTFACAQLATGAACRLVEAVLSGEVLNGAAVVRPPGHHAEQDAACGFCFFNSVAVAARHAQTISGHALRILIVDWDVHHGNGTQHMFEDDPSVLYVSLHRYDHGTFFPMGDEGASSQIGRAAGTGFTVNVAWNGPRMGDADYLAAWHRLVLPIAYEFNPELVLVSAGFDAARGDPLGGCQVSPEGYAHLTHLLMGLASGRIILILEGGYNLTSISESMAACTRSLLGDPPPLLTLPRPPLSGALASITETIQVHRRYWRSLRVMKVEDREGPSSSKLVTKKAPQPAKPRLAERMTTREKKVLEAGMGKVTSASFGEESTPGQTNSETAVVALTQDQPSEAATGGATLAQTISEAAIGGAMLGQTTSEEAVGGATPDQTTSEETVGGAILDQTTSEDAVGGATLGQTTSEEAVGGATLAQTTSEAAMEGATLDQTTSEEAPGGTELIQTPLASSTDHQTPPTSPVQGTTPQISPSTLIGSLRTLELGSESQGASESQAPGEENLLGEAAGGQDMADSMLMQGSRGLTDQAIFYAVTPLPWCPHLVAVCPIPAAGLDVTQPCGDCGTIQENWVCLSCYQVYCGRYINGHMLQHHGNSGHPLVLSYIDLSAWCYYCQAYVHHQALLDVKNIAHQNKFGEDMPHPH

[12] = Drug accumulation in mouse heart measured after 5 mins post injection; type: ADME, tissue-based; conditions: in vivo
[13] = Drug accumulation in mouse lung measured after 5 mins post injection; type: ADME, tissue-based; conditions: in vivo
[14] = Drug uptake in mouse brain at 3 mg/kg measured at upto 60 mins by PET imaging based analysis; type: ADME, organism-based; conditions: in vivo, 1 h
[15] = Drug accumulation in mouse kidney measured after 5 mins post injection; type: ADME, tissue-based; conditions: in vivo
[16] = Drug accumulation in mouse spleen measured after 5 mins post injection; type: ADME, tissue-based; conditions: in vivo
[17] = Drug accumulation in mouse liver measured after 5 mins post injection; type: ADME, tissue-based; conditions: in vivo
[18] = Drug accumulation in mouse liver measured after 60 mins post injection; type: ADME, tissue-based; conditions: in vivo, 1 h
[19] = Drug accumulation in mouse kidney measured after 60 mins post injection; type: ADME, tissue-based; conditions: in vivo, 1 h

Histone deacetylase 1, sequence (Q13547 whole entry): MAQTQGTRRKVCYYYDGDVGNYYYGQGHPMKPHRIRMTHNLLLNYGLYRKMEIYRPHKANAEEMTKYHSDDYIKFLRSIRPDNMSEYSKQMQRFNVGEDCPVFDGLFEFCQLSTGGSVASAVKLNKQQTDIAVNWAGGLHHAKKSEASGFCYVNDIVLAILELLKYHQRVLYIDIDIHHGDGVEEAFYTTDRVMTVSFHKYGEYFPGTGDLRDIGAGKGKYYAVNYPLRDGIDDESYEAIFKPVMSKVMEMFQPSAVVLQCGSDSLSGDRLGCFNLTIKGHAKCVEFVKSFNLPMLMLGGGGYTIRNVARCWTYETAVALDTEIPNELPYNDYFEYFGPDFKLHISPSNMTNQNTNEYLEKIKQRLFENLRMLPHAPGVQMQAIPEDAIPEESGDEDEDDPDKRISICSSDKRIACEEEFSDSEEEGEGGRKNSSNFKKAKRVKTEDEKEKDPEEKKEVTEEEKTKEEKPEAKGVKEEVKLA
Histone deacetylase 2, sequence (Q92769 whole entry): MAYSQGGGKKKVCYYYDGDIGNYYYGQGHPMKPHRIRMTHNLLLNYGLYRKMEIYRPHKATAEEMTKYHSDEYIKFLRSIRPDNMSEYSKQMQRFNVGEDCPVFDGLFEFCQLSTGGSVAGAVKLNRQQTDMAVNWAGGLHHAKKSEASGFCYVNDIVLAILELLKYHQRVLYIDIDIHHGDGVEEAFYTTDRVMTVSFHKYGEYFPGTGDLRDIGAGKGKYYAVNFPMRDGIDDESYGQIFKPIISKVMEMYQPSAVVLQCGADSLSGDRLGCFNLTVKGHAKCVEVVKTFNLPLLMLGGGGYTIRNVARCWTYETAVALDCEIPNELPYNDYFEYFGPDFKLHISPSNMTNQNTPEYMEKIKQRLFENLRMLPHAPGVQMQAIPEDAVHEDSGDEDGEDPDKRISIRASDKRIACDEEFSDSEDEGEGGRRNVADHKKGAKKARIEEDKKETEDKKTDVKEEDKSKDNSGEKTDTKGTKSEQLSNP
Histone deacetylase 5, sequence (Q9UQL6 whole entry): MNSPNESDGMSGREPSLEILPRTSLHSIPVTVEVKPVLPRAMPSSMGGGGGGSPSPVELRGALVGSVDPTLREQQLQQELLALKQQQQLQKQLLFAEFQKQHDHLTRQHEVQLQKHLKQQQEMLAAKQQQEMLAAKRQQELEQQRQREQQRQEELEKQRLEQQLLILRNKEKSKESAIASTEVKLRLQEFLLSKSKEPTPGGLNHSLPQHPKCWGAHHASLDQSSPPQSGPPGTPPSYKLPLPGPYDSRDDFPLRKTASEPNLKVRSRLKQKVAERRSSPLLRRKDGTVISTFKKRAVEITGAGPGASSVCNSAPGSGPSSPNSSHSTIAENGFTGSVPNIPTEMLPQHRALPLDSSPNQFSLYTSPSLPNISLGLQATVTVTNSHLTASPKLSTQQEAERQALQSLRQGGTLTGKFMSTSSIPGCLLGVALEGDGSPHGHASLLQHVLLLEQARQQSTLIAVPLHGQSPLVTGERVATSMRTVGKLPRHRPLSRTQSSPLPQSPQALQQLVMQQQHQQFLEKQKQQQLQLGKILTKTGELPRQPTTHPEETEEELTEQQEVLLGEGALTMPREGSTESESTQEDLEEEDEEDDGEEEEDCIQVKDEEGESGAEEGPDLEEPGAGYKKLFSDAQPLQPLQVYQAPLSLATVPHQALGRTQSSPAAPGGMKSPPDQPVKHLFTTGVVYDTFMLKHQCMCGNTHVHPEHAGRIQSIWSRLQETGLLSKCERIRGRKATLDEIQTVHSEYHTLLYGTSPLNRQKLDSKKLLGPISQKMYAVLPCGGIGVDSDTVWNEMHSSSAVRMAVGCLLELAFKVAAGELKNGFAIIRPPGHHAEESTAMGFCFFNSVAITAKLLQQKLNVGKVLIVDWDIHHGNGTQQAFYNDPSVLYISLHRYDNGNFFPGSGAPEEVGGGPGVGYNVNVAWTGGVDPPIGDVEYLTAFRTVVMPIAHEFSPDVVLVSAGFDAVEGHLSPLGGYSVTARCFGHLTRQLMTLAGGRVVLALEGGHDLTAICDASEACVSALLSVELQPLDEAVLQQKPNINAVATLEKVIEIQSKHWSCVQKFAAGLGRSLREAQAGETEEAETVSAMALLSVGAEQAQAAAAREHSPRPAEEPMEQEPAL
Histone deacetylase 4, sequence (P56524 whole entry): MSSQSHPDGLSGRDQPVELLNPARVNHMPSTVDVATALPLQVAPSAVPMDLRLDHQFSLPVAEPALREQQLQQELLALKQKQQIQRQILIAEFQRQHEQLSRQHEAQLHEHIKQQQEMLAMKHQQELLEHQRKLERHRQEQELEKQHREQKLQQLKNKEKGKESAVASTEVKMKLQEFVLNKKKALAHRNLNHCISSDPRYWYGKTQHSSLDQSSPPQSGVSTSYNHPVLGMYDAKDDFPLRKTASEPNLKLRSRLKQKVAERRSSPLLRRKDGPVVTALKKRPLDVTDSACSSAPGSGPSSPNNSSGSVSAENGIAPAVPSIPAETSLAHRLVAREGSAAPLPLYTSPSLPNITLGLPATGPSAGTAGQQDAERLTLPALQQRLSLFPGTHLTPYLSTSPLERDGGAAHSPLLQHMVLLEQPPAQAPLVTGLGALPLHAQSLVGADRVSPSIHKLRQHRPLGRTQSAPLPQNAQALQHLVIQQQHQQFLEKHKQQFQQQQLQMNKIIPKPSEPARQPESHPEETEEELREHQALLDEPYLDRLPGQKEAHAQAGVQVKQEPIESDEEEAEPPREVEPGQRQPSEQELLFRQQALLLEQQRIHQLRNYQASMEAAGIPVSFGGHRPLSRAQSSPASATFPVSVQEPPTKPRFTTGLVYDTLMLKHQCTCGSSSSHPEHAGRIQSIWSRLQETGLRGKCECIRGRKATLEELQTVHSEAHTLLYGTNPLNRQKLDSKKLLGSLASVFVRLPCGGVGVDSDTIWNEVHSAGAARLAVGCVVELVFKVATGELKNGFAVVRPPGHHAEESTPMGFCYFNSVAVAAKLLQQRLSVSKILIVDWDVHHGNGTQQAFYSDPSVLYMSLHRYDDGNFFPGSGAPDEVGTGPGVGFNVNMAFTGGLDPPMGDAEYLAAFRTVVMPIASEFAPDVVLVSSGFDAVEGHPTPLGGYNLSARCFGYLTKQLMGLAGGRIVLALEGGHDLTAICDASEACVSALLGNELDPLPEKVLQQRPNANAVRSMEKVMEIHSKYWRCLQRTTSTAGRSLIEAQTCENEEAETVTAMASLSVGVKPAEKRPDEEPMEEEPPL
Histone deacetylase 9, sequence (Q9UKV0 whole entry): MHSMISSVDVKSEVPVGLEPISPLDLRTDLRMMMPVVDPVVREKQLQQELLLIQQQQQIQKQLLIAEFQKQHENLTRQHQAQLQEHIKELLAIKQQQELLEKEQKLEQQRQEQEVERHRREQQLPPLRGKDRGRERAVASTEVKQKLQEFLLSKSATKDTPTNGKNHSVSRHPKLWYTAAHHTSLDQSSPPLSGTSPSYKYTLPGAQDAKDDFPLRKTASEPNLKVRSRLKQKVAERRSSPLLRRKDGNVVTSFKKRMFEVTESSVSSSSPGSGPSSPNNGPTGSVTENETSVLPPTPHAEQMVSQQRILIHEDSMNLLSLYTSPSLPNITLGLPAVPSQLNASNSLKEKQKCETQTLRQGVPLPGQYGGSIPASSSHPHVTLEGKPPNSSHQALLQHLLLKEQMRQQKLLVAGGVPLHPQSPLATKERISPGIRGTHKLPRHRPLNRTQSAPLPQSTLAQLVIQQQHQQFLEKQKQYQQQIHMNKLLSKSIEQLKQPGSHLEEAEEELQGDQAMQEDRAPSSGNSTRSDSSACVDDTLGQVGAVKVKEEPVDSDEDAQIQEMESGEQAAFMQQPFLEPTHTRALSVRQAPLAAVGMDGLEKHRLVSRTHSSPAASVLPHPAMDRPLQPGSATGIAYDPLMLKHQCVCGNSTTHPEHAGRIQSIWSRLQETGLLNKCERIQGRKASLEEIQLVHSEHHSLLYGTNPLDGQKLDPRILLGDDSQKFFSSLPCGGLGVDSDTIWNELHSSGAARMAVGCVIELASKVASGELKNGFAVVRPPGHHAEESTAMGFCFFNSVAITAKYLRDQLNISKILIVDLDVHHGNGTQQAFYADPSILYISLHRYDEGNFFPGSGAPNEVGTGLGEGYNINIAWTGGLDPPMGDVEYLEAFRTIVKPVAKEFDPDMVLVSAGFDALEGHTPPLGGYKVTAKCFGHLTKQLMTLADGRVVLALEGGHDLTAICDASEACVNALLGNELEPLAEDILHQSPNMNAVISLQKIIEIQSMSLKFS
Histone deacetylase 3, sequence (O15379 whole entry): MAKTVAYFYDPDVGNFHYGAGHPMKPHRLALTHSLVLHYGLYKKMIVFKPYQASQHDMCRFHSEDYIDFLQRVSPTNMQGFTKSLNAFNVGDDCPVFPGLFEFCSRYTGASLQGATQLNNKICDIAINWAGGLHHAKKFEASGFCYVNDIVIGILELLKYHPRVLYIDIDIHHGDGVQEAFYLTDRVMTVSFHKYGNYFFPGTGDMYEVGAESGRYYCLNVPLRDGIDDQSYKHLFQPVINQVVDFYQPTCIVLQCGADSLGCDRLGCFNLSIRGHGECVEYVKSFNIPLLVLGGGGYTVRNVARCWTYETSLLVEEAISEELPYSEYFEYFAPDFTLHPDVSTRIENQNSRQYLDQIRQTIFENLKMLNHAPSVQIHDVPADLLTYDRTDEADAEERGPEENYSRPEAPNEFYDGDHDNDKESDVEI

SMILES: O=C(NO)c1ccc(CNC2CCCc3cccnc32)c(F)c1 (stereo unspecified)
IC50 (Histone deacetylase 1): 5050 nM
IC50 [11]: 63 nM

SMILES: O=C(NO)c1ccc(CNc2cccc3ccc([18F])nc23)cc1
SUV [14]: 0.35

SMILES: O=C(NO)c1ccc(CNC2CCCc3cccnc32)cc1 (stereo unspecified)
IC50 (Histone deacetylase 1): 4710 nM
IC50 [11]: 86.1 nM

Further lines, with some results ahead:

IC50 (Histone deacetylase 3): 568 nM
Kp at 0.5 h [1]: 2.1
IC50 (Histone deacetylase 11): 8610 nM
Kp at 3 h [2]: 1.3
IC50 (Histone deacetylase 9): 701 nM
IC50 (Histone deacetylase 4): 578 nM
concentration at 0.5 h [3]: 13.2 ng/mL
concentration at 3 h [4]: 0.82 ng/mL
concentration at 1 h [5]: 6.48 ng/mL
concentration at 1 h [6]: 4.32 ng/mL
concentration at 0.5 h [7]: 6.21 ng/mL
IC50 (Histone deacetylase 2): > 10000 nM
IC50 [8]: 269 nM
Kp at 1 h [9]: 1.5
concentration at 3 h [10]: 1.07 ng/mL
IC50 (Histone deacetylase 5): 1850 nM
IC50 (Histone deacetylase 8): 597 nM
SMILES: O=C(NO)c1ccc(CN2CCCc3cccnc32)c(F)c1
Activity (BV-2): Non-Toxic

Drug uptake [12]: > 10 %ID/cc
Drug uptake [13]: Active
SUV [14]: 0.6
Drug uptake [15]: > 10 %ID/cc
Drug uptake [16]: Active
Drug uptake [17]: > 10 %ID/cc
Drug uptake [18]: Active
Drug uptake [19]: Active
SMILES: O=C(NO)c1ccc(CN2CCCc3cccnc32)c([18F])c1
